From publication PMC12892976, “Alkylation-based optimization of antifungal FPPS inhibitors yields a potent, broad-spectrum lipophilic zoledronate derivative” (mBio, 2025)
≈ marks a conversion by molar mass, not a printed value.

Key:
[1] = system: Cryptococcus neoformans biofilms; assay: biofilm XTT reduction assay (SIC80, SFICI); settings: for SICc: Cryptococcus neoformans; for SIC80: agent alone, Cryptococcus neoformans H99
Experimental: (§2) Biofilms of Cryptococcus were seeded in DMEM, and all other species were seeded in RPMI-1640.

Rhizopus oryzae [2] = assay: MIC broth microdilution (CLSI); format: cell-based; settings: Rhizopus oryzae 04-14-364-1703
Experimental: (§3) Antifungal susceptibility was determined by broth microdilution according to the CLSI guidelines described in M27-Ed4 ([16]).

Scedosporium apiospermum = assay: MIC broth microdilution (CLSI); format: cell-based; settings: Scedosporium apiospermum 04-16-022-2268
Experimental: as §3

[3] = system: Saccharomyces cerevisiae biofilms; assay: biofilm XTT reduction assay (SIC80, SFICI); format: cell-based; settings: for SICc: Saccharomyces cerevisiae; for SIC80: agent alone, Saccharomyces cerevisiae S288c
Experimental: as §2

Fusarium solani = assay: MIC broth microdilution (CLSI); settings: Fusarium solani 04-16-056-1862
Experimental: as §3

Fusarium oxysporum = assay: MIC broth microdilution (CLSI); format: cell-based; settings: Fusarium oxysporum 07-200-3012
Experimental: as §3

Mucor circinelloides = assay: checkerboard drug interaction (FICI, MICc); format: cell-based;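 note: simplified diagonal checkerboard screen pairing antifungals with FPPS inhibitors, FICI calculated under the Loewe additivity model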
Experimental: (§4) Drug interactions between antifungals and FPPS inhibitors were investigated using a simplified checkerboard diagonal screening method ([45]). […] FICIs were determined according to the Loewe additivity model ([17]).

Aspergillus lentulus = assay: MIC broth microdilution (CLSI); format: cell-based; settings: Aspergillus lentulus DTO 341-G7
Experimental: as §3

Lomentospora prolificans [4] = assay: MIC broth microdilution (CLSI); format: cell-based; settings: Lomentospora prolificans 80-16-101-2445
Experimental: as §3

Lomentospora prolificans [5] = assay: checkerboard drug interaction (FICI, MICc);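 note: simplified diagonal checkerboard screen pairing antifungals with FPPS inhibitors, FICI calculated under the Loewe additivity model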
Experimental: as §4

[6] = system: Aspergillus frankstonensis; assay: checkerboard drug interaction (FICI, MICc);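 note: simplified diagonal checkerboard screen pairing antifungals with FPPS inhibitors, FICI calculated using the Loewe additivity model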
Experimental: as §4

Candida tropicalis = assay: checkerboard drug interaction (FICI, MICc); format: cell-based;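 note: simplified diagonal checkerboard screen of antifungal plus FPPS inhibitor combinations, with FICI computed by the Loewe additivity model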
Experimental: as §4

[7] = system: Candida albicans biofilms; assay: biofilm XTT reduction assay (SIC80, SFICI); settings: for SICc: Candida albicans; for SIC80: agent alone, Candida albicans SC5314
Experimental: as §2

[8] = system: Cryptococcus deneoformans; assay: checkerboard drug interaction (FICI, MICc); format: cell-based;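 note: simplified diagonal checkerboard screen pairing antifungals with FPPS inhibitors, FICI calculated under the Loewe additivity model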
Experimental: as §4

[9] = system: Cryptococcus deuterogattii biofilms; assay: biofilm XTT reduction assay (SIC80, SFICI); settings: for SICc: Cryptococcus deuterogattii; for SIC80: agent alone, Cryptococcus deuterogattii R265
Experimental: as §2

Trichophyton tonsurans = assay: MIC broth microdilution (CLSI); settings: Trichophyton tonsurans R-168
Experimental: as §3

Cryptococcus tetragattii = assay: checkerboard drug interaction (FICI, MICc); format: cell-based;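 note: simplified diagonal checkerboard screen pairing antifungals with FPPS inhibitors, with FICI calculated under the Loewe additivity model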
Experimental: as §4

Candida parapsilosis = assay: MIC broth microdilution (CLSI); format: cell-based; settings: Candida parapsilosis ATCC 22018
Experimental: Antifungal susceptibility was determined by broth microdilution according to the CLSI guidelines described in M27-Ed4 ([16]). […] MFC was determined by back-plating drug-treated cultures from MIC broths onto SDA plates. The MFC was defined as the lowest concentration from which no colonies could be cultured.

Cryptococcus gattii = assay: MIC broth microdilution (CLSI); format: cell-based; settings: Cryptococcus gattii PNG27
Experimental: as §3

Rhizopus oryzae [10] = assay: checkerboard drug interaction (FICI, MICc); format: cell-based;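 note: simplified diagonal checkerboard screen pairing antifungals with FPPS inhibitors, FICI calculated under the Loewe additivity model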
Experimental: as §4

Candida auris = assay: checkerboard drug interaction (FICI, MICc); format: cell-based;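 note: simplified diagonal checkerboard screen pairing antifungals with FPPS inhibitors, with FICI computed under the Loewe additivity model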
Experimental: as §4

Epidermophyton floccosum = assay: checkerboard drug interaction (FICI, MICc)
Experimental: as §4

[11] = system: Trichophyton interdigitale; assay: checkerboard drug interaction (FICI, MICc);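 note: simplified diagonal checkerboard screen pairing antifungals with FPPS inhibitors, FICI values calculated under the Loewe additivity model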
Experimental: as §4

Candida dubliniensis = assay: MIC broth microdilution (CLSI); format: cell-based; settings: Candida dubliniensis M230642
Experimental: as §3

[12] = system: Trichophyton rubrum biofilms; assay: biofilm XTT reduction assay (SIC80, SFICI); format: cell-based; settings: biofilm; for SICc: Trichophyton rubrum; for SIC80: agent alone, Trichophyton rubrum 213
Experimental: as §2

Trichophyton soudanense = assay: checkerboard drug interaction (FICI, MICc); format: cell-based;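 note: simplified diagonal checkerboard screen pairing antifungals with FPPS inhibitors, FICI computed under the Loewe additivity model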
Experimental: as §4

[13] = system: Aspergillus fumigatus biofilms; assay: biofilm XTT reduction assay (SIC80, SFICI); format: cell-based; settings: for SICc: Aspergillus fumigatus; for SIC80: agent alone, Aspergillus fumigatus ATCC 204305
Source text: (§1) […]. […] […].

[14] = system: Aspergillus flavus biofilms; assay: biofilm XTT reduction assay (SIC80, SFICI); format: cell-based; settings: for SICc: Aspergillus flavus; for SIC80: agent alone, Aspergillus flavus ATCC 204304
Source text: as §1

[15] = system: Candida glabrata biofilms; assay: biofilm XTT reduction assay (SIC80, SFICI); format: cell-based; settings: for SICc: Candida glabrata; for SIC80: agent alone, Candida glabrata CBS138
Source text: as §1

## CCC(C)n1ncn(-c2ccc(N3CCN(c4ccc(OCC5COC(Cn6cncn6)(c6ccc(Cl)cc6Cl)O5)cc4)CC3)cc2)c1=O (stereo not drawn) [ITR, itraconazole]
[1]; ITR:10-ZOL combination
  SICc: 32 µg/mL
[1]
  SIC80: 64 µg/mL
Rhizopus oryzae [2]
  MIC / MEC: 2 µg/mL (≈ 2.83 µM)
Scedosporium apiospermum
  MIC / MEC: 8 µg/mL (≈ 11.3 µM)
[3]; ITR:10-ZOL combination
  SICc: 16 µg/mL
[3]
  SIC80: 32 µg/mL
Fusarium solani
  MIC / MEC: 2 µg/mL (≈ 2.83 µM)
Fusarium oxysporum
  MIC / MEC: 4 µg/mL (≈ 5.67 µM)
Mucor circinelloides; in combination with 10-ZOL
  antifungal MICc: 0.25
Mucor circinelloides; in combination with ZOL
  antifungal MICc: 0.06
Aspergillus lentulus
  MIC / MEC: 2 µg/mL (≈ 2.83 µM)
Lomentospora prolificans [4]
  MIC / MEC: 4 µg/mL (≈ 5.67 µM)
Lomentospora prolificans [5]; in combination with 10-ZOL
  antifungal MICc: 1
Lomentospora prolificans [5]; in combination with ZOL
  antifungal MICc: 2
[6]; in combination with 10-ZOL
  antifungal MICc: 1
[6]; in combination with ZOL
  antifungal MICc: 2
Candida tropicalis; in combination with 10-ZOL
  antifungal MICc: 0.125
Candida tropicalis; in combination with ZOL
  antifungal MICc: 0.062
[7]; ITR:10-ZOL combination
  SICc: 128 µg/mL
[7]
  SIC80: 256 µg/mL
[8]; in combination with 10-ZOL
  antifungal MICc: 0.063
[8]; in combination with ZOL
  antifungal MICc: 0.125
[9]; ITR:10-ZOL combination
  SICc: 64 µg/mL
[9]
  SIC80: 128 µg/mL
Trichophyton tonsurans
  MIC / MEC: 1 µg/mL (≈ 1.42 µM)
Cryptococcus tetragattii; in combination with 10-ZOL
  antifungal MICc: 0.25
Cryptococcus tetragattii; in combination with ZOL
  antifungal MICc: 1
Candida parapsilosis
  MIC / MEC: 0.25 µg/mL (≈ 0.354 µM)
Cryptococcus gattii
  MIC / MEC: 0.25 µg/mL (≈ 0.354 µM)
Rhizopus oryzae [10]; in combination with 10-ZOL
  antifungal MICc: 0.125
Rhizopus oryzae [10]; in combination with ZOL
  antifungal MICc: 2
Candida auris; in combination with 10-ZOL
  antifungal MICc: 1
Candida auris; in combination with ZOL
  antifungal MICc: 1
Epidermophyton floccosum; in combination with 10-ZOL
  antifungal MICc: 0.5
Epidermophyton floccosum; in combination with ZOL
  antifungal MICc: 0.5
[11]; in combination with 10-ZOL
  antifungal MICc: 0.5
[11]; in combination with ZOL
  antifungal MICc: 0.25
Candida dubliniensis
  MIC / MEC: 0.13 µg/mL (≈ 0.184 µM)
[12]; ITR:10-ZOL combination
  SICc: 64 µg/mL
[12]
  SIC80: >256 µg/mL
Trichophyton soudanense; in combination with 10-ZOL
  antifungal MICc: 0.25
Trichophyton soudanense; in combination with ZOL
  antifungal MICc: 0.25
[13]; ITR:10-ZOL combination
  SICc: 128 µg/mL
[13]
  SIC80: 256 µg/mL
[14]; ITR:10-ZOL combination
  SICc: 64 µg/mL
[14]
  SIC80: 128 µg/mL
[15]; ITR:10-ZOL combination
  SICc: 128 µg/mL
[15]
  SIC80: 256 µg/mL

## CC(=O)N1CCN(c2ccc(OCC3COC(Cn4ccnc4)(c4ccc(Cl)cc4Cl)O3)cc2)CC1 (stereo not drawn) [KET, ketoconazole]
[1]; KET:10-ZOL combination
  SICc: 16 µg/mL
[1]
  SIC80: 32 µg/mL
Rhizopus oryzae [2]
  MIC / MEC: >16 µg/mL
Scedosporium apiospermum
  MIC / MEC: 8 µg/mL (≈ 15.1 µM)
[3]; KET:10-ZOL combination
  SICc: 16 µg/mL
[3]
  SIC80: 32 µg/mL
Fusarium solani
  MIC / MEC: 16 µg/mL (≈ 30.1 µM)
Fusarium oxysporum
  MIC / MEC: 16 µg/mL (≈ 30.1 µM)
Mucor circinelloides; in combination with 10-ZOL
  antifungal MICc: 4
Mucor circinelloides; in combination with ZOL
  antifungal MICc: 8
Aspergillus lentulus
  MIC / MEC: 16 µg/mL (≈ 30.1 µM)
Lomentospora prolificans [4]
  MIC / MEC: 4 µg/mL (≈ 7.53 µM)
Lomentospora prolificans [5]; in combination with 10-ZOL
  antifungal MICc: 0.25
Lomentospora prolificans [5]; in combination with ZOL
  antifungal MICc: 2
[6]; in combination with 10-ZOL
  antifungal MICc: 1
[6]; in combination with ZOL
  antifungal MICc: 4
Candida tropicalis; in combination with 10-ZOL
  antifungal MICc: 4
Candida tropicalis; in combination with ZOL
  antifungal MICc: 0.5
[7]; KET:10-ZOL combination
  SICc: 32 µg/mL
[7]
  SIC80: 64 µg/mL
[8]; in combination with 10-ZOL
  antifungal MICc: 0.063
[8]; in combination with ZOL
  antifungal MICc: 0.03125
[9]; KET:10-ZOL combination
  SICc: 32 µg/mL
[9]
  SIC80: 256 µg/mL
Trichophyton tonsurans
  MIC / MEC: 4 µg/mL (≈ 7.53 µM)
Cryptococcus tetragattii; in combination with 10-ZOL
  antifungal MICc: 0.125
Cryptococcus tetragattii; in combination with ZOL
  antifungal MICc: 0.25
Candida parapsilosis
  MIC / MEC: 0.03 µg/mL (≈ 0.0565 µM)
Cryptococcus gattii
  MIC / MEC: 0.5 µg/mL (≈ 0.941 µM)
Rhizopus oryzae [10]; in combination with 10-ZOL
  antifungal MICc: 4
Rhizopus oryzae [10]; in combination with ZOL
  antifungal MICc: 16
Candida auris; in combination with 10-ZOL
  antifungal MICc: 1
Candida auris; in combination with ZOL
  antifungal MICc: 1
Epidermophyton floccosum; in combination with 10-ZOL
  antifungal MICc: 1
Epidermophyton floccosum; in combination with ZOL
  antifungal MICc: 0.5
[11]; in combination with 10-ZOL
  antifungal MICc: 0.5
[11]; in combination with ZOL
  antifungal MICc: 2
Candida dubliniensis
  MIC / MEC: 0.02 µg/mL (≈ 0.0376 µM)
[12]; KET:10-ZOL combination
  SICc: 64 µg/mL
[12]
  SIC80: 256 µg/mL
Trichophyton soudanense; in combination with 10-ZOL
  antifungal MICc: 0.5
Trichophyton soudanense; in combination with ZOL
  antifungal MICc: 1
[13]; KET:10-ZOL combination
  SICc: 64 µg/mL
[13]
  SIC80: 256 µg/mL
[14]; KET:10-ZOL combination
  SICc: 64 µg/mL
[14]
  SIC80: 128 µg/mL
[15]; KET:10-ZOL combination
  SICc: 64 µg/mL
[15]
  SIC80: 256 µg/mL
